We go through 18 compounds from patent US8435978B2, “Substituted sulfonamide compounds” (Gruenenthal GmbH, priority 2006, dated 2013).

What is called inhibition is the change of the read-out against control, counted positive when it falls.

For one test, the target named is T1, human B1R receptor (Homo sapiens, UniProt P46663).
T1 construct: host or cells: CHO K1 cells (Chinese hamster ovary), stably transfected
T1 sequence (P46663 1-353): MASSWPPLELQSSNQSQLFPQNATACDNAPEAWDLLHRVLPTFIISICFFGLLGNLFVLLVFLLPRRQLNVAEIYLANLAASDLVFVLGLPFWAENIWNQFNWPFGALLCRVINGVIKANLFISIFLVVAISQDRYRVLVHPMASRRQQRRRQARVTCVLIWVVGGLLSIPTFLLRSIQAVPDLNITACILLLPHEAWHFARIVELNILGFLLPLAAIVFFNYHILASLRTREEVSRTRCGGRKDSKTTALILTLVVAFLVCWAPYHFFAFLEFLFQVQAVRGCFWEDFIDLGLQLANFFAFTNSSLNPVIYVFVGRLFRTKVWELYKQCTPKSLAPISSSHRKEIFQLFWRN
As to the kind of experiment: Functional study on the bradykinin receptor 1 (B1R), FLIPR Ca2+ assay, hB1R cells. In kind it is cell-based. The note with it: CHO-K1, test substance 10 μM, agonist Lys-Des-Arg9-bradykinin 0.5 nM, % inhibition compared with the maximum achievable inhibition, read-out: B1R Antagonism, human [10 μM] % Inhibition. The procedure:
(§1) The agonistic or antagonistic action of substances can be quantified on the bradykinin receptor 1 (B1R) of the species human and rat with ectopically expressing cell lines (CHO K1 cells) and with the aid of a Ca^2+-sensitive dye (Fluo-4) using a fluorescent imaging plate reader (FLIPR). The indication in % activation is based on the Ca^2+ signal after addition of Lys-Des-Arg^9-bradykinin (0.5 nM) or Des-Arg^9-bradykinin (100 nM). Antagonists result in a suppression of the Ca^2+ influx following administration of the agonist. The % inhibition in comparison with the maximum achievable inhibition is indicated.
(§2) The agonistic or antagonistic action of substances can be determined on the bradykinin receptor 1 (B1R) of the species human and rat using the following assay. According to this assay, the Ca^2+ influx through the channel is quantified with the aid of a Ca^2+-sensitive dye (type Fluo-4, Molecular Probes Europe BV, Leiden, Netherlands) using a Fluorescent Imaging Plate Reader (FLIPR, Molecular Devices, Sunnyvale, USA).
(§3) Chinese hamster ovary cells (CHO K1 cells) which have been stably transfected with the human B1R gene (hB1R cells, Euroscreen s.a., Gosselies, Belgium) or with the B1R gene of the rat (rB1R cells, Axxam, Milan, Italy) are used. For functional studies, the cells are plated out on black 96-well plates having a clear base (BD Biosciences, Heidelberg, Germany) in a density of 20,000-25,000 cells/well. The cells are incubated overnight at 37° C. and with 5% CO2 in culture medium (hB1R cells: Nutrient Mixture Ham's F12, Gibco Invitrogen GmbH, Karlsruhe, Germany; rB1R cells: D-MEM/F12, Gibco Invitrogen GmbH, Karlsruhe, Germany), with 10 vol. % FBS (fetal bovine serum, Gibco Invitrogen GmbH, Karlsruhe, Germany). On the following day, the cells are loaded for 60 minutes at 37° C. with 2.13 μM Fluo-4 (Molecular Probes Europe BV, Leiden, Netherlands) in HBSS buffer (Hank's buffered saline solution, Gibco Invitrogen GmbH, Karlsruhe, Germany) […] (Sigma-Aldrich, Taufkirchen, Germany) and 10 mM HEPES (Sigma-Aldrich, Taufkirchen, Germany). The plates are then washed twice with HBSS buffer, and HBSS buffer additionally containing 0.1% BSA (bovine serum albumin; Sigma-Aldrich, Taufkirchen, Germany), 5.6 mM glucose and 0.05% gelatin (Merck KGaA, Darmstadt, Germany) is added to the plates. After incubation for a further 20 minutes at room temperature, the plates are inserted into the FLIPR for Ca^2+ measurement. The Ca^2+-dependent fluorescence is measured before and after the addition of substances (λex=488 nm, λem=540 nm). Quantification is carried out by measuring the highest fluorescence intensity (FC, fluorescence counts) over time.
(§4) The FLIPR protocol consists of 2 substance additions. Test substances (10 μM) are first pipetted onto the cells and the Ca^2+ influx is compared with the control (hB1R: Lys-Des-Arg^9-bradykinin 0.5 nM; rB1R: Des-Arg^9-bradykinin 100 nM). This gives the activation in %, based on the Ca^2+ signal after addition of Lys-Des-Arg^9-bradykinin (0.5 nM) or Des-Arg^9-bradykinin (100 nM).
(§5) After 10 minutes' incubation, 0.5 nM Lys-Des-Arg^9-bradykinin (hB1R) or 100 nM Des-Arg^9-bradykinin (rB1R) are applied, and the influx of Ca^2+ is likewise determined. Antagonists lead to suppression of the Ca^2+ influx. The % inhibition compared with the maximum achievable inhibition is calculated.

The target in a further test is T2, B1R receptor of the rat (Rattus norvegicus, UniProt P97583).
T2 construct: host or cells: CHO K1 cells (Chinese hamster ovary), stably transfected
T2 sequence (P97583 1-337): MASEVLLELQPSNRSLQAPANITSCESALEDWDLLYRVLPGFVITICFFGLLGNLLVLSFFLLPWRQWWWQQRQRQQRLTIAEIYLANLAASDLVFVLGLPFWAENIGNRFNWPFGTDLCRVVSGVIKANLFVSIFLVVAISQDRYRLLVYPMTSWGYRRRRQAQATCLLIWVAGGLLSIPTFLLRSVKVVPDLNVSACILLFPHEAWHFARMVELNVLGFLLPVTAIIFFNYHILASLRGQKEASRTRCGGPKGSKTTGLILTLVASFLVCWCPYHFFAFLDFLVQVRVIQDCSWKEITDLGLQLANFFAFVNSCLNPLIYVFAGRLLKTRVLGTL
As to the kind of experiment: Functional study on the bradykinin receptor 1 (B1R), FLIPR Ca2+ assay, rB1R cells. The note with it: CHO-K1, test substance 10 μM, agonist Des-Arg9-bradykinin 100 nM, % inhibition compared with the maximum achievable inhibition, read-out: B1R Antagonism, rat [10 μM] % Inhibition. The class given is cell-based. The procedure: as §1, §2, §3, §4, §5

SMILES strings stand for the structures.

Consider `COc1cc(C)c(S(=O)(=O)N2CCCC2COCC(=O)Nc2ccc(N3CCN(C)CC3)cc2)c(C)c1` (stereo not shown) [Example 301, 2-((1-(4-methoxy-2,6-dimethylphenylsulfonyl)pyrrolidin-2-yl)methoxy)-N-(4-(4-methylpiperazin-1-yl)phenyl)acetamide], for which the inhibition at 10 µM at human B1R receptor is 106%; at B1R receptor of the rat, 101%.

On to `O=C(COCC1CCCCN1S(=O)(=O)c1ccc(Cl)c(Cl)c1)N1CCC(Cc2ccccc2)CC1` (stereo not shown) [Example 57, 1-(4-benzyl-piperidin-1-yl)-2-[1-(3,4-dichloro-phenylsulfonyl)-piperidin-2-ylmethoxy]-ethanone], for which the results for the inhibition at 10 µM at human B1R receptor and on B1R receptor of the rat were 62.4% and 0%, respectively.

Take `CC(C)N(CCN1CCN(C(=O)COCC2CCCCN2S(=O)(=O)c2c(Cl)cc(Cl)cc2Cl)CC1)C(C)C` (stereo not shown) [Example 254, 1-(4-(2-(diisopropylamino)ethyl)piperazin-1-yl)-2-((1-(2,4,6-trichlorophenylsulfonyl)piperidin-2-yl)methoxy)ethanone]: the inhibition at 10 µM is 105% at human B1R receptor and 97.8% on B1R receptor of the rat.

As to `O=C(COCC1Cc2ccccc2CN1S(=O)(=O)c1ccccc1)Nc1cccc(N2CCOCC2)c1` (stereo not shown) [Example 264, N-(3-morpholinophenyl)-2-((2-(phenylsulfonyl)-1,2,3,4-tetrahydroisoquinolin-3-yl)methoxy)acetamide], the inhibition at 10 µM was 103% on human B1R receptor and 31.7% at B1R receptor of the rat.

As to `COc1cc(C)c(S(=O)(=O)N2CCCC2COCC(=O)NCCCN2CCCCC2)c(C)c1` (stereo not shown) [Example 522, 2-((1-(4-methoxy-2,6-dimethylphenylsulfonyl)pyrrolidin-2-yl)methoxy)-N-(3-(piperidin-1-yl)propyl)acetamide], the inhibition at 10 µM at human B1R receptor turned out to be 54.2%; at B1R receptor of the rat, 98.7%.

Turning to `COc1ccc(S(=O)(=O)N2c3ccccc3CC2COCC(=O)Nc2cccc(CN3CCCCC3)c2)cc1` (stereo not shown) [Example 423, 2-((1-(4-methoxyphenylsulfonyl)indolin-2-yl)methoxy)-N-(3-(piperidin-1-ylmethyl)phenyl)acetamide], the inhibition at 10 µM on human B1R receptor turned out to be 58.7%; on B1R receptor of the rat, 80.1%.

For the compound `COc1cc(C)c(S(=O)(=O)N2CCCC2COCC(=O)N2CCN(c3ncccn3)CC2)c(C)c1` (stereo not shown) [Example 309, 2-((1-(4-methoxy-2,6-dimethylphenylsulfonyl)pyrrolidin-2-yl)methoxy)-1-(4-(pyrimidin-2-yl)piperazin-1-yl)ethanone], the inhibition at 10 µM stood at 52% on human B1R receptor and 101% at B1R receptor of the rat.

For the compound `CCc1ccc(CC2CCCN2C(=O)COCC2CCCN2S(=O)(=O)c2c(C)cc(OC)cc2C)nc1` (stereo not shown) [Example 490, 1-(2-((5-ethylpyridin-2-yl)methyl)pyrrolidin-1-yl)-2-((1-(4-methoxy-2,6-dimethylphenylsulfonyl)pyrrolidin-2-yl)methoxy)ethanone], the inhibition at 10 µM is 93.5% at human B1R receptor and 103% at B1R receptor of the rat.

Regarding `O=C(COCC1CCCN1S(=O)(=O)c1c(Cl)cc(Cl)cc1Cl)NCc1ccc(N2CCOCC2)cc1` (stereo not shown) [Example 580, N-(4-morpholinobenzyl)-2-((1-(2,4,6-trichlorophenylsulfonyl)pyrrolidin-2-yl)methoxy)acetamide], the inhibition at 10 µM on human B1R receptor stood at 39.1%; on B1R receptor of the rat it was 88.5%.

With `CN(CCc1ccncc1)C(=O)COCC1CCCCN1S(=O)(=O)c1c(Cl)cc(Cl)cc1Cl` (stereo not shown) [Example 391, N-methyl-N-(2-(pyridin-4-yl)ethyl)-2-((1-(2,4,6-trichlorophenylsulfonyl)piperidin-2-yl)methoxy)acetamide], the inhibition at 10 µM at human B1R receptor came to 97.8%; at B1R receptor of the rat it was 102%.

`COc1cc(C)c(S(=O)(=O)N2CCCCC2COCC(=O)NCCCN2CCOCC2)c(C)c1` (stereo not shown) [Example 344, 2-((1-(4-methoxy-2,6-dimethylphenylsulfonyl)piperidin-2-yl)methoxy)-N-(3-morpholinopropyl)acetamide]: the inhibition at 10 µM at human B1R receptor is 48.8%; on B1R receptor of the rat, 88.4%.

`O=C(COCC1CCCN1S(=O)(=O)c1c(Cl)cccc1Cl)N1CCC(CCN2CCCCC2)CC1` (stereo not shown) [Example 286, 2-((1-(2,6-dichlorophenylsulfonyl)pyrrolidin-2-yl)methoxy)-1-(4-(2-(piperidin-1-yl)ethyl)piperidin-1-yl)ethanone]: the inhibition at 10 µM on human B1R receptor was found to be 104%; at B1R receptor of the rat, 97.9%.

With `CN1CCN(C2CCN(C(=O)COCC3CCCN3S(=O)(=O)c3c(Cl)cc(Cl)cc3Cl)CC2)CC1` (stereo not shown) [Example 330, 1-(4-(4-methylpiperazin-1-yl)piperidin-1-yl)-2-((1-(2,4,6-trichlorophenylsulfonyl)pyrrolidin-2-yl)methoxy)ethanone], the values for the inhibition at 10 µM at human B1R receptor and at B1R receptor of the rat were 104% and 100%, respectively.

As to `CN(C(=O)COCC1CCCCN1S(=O)(=O)c1c(Cl)cc(C(F)(F)F)cc1Cl)[C@H]1CCN(Cc2ccccc2)C1` (stereo partly drawn) [Example 574, N—((S)-1-benzylpyrrolidin-3-yl)-2-((1-(2,6-dichloro-4-(trifluoromethyl)phenylsulfonyl)piperidin-2-yl)methoxy)-N-methylacetamide], the inhibition at 10 µM at human B1R receptor stood at 90%.

With `COc1ccc(S(=O)(=O)N2CCCCC2CCOCC(=O)N2CCN(CCc3ccccc3)CC2)cc1` (stereo not shown) [Example 91, 2-(2-(1-(4-methoxyphenylsulfonyl)piperidin-2-yl)ethoxy)-1-(4-phenethylpiperazin-1-yl)ethanone], the inhibition at 10 µM on human B1R receptor was 48.8%.

As to `CN1CCN(C2CCN(C(=O)COCC3CCCCN3S(=O)(=O)c3csc4ccccc34)CC2)CC1` (stereo not shown) [Example 572, 2-((1-(benzo[b]thiophen-3-ylsulfonyl)piperidin-2-yl)methoxy)-1-(4-(4-methylpiperazin-1-yl)piperidin-1-yl)ethanone], the inhibition at 10 µM at B1R receptor of the rat was determined as 99%.

`CN1CCC(CN2CCN(C(=O)COCC3CCCCN3S(=O)(=O)c3csc4ccccc34)CC2)CC1` (stereo not shown) [Example 573, 2-((1-(benzo[b]thiophen-3-ylsulfonyl)piperidin-2-yl)methoxy)-1-(4-((1-methylpiperidin-4-yl)methyl)piperazin-1-yl)ethanone]: the inhibition at 10 µM on B1R receptor of the rat amounted to 101%.

Take `CN(C(=O)COCC1CCCCN1S(=O)(=O)c1ccccc1C(F)(F)F)[C@H]1CCN(Cc2ccccc2)C1` (stereo partly drawn) [Example 218, N—((S)-1-benzylpyrrolidin-3-yl)-N-methyl-2-((1-(2-(trifluoromethyl)phenylsulfonyl)piperidin-2-yl)methoxy)acetamide]: at human B1R receptor, the inhibition at 10 µM worked out at 100%.
